15 compounds from USRE49735E1 (BRISTOL-MYERS SQUIBB COMPANY, priority 2010, dated 2023) can be followed below.

Where “and” joins values, the source holds several entries; their conditions need not be identical. Equal values may be shown once. A value given as a limit tells only on which side of the number the result lay.

Sequence of human mGluR5A (P41594 21-1180 isoform P41594-2): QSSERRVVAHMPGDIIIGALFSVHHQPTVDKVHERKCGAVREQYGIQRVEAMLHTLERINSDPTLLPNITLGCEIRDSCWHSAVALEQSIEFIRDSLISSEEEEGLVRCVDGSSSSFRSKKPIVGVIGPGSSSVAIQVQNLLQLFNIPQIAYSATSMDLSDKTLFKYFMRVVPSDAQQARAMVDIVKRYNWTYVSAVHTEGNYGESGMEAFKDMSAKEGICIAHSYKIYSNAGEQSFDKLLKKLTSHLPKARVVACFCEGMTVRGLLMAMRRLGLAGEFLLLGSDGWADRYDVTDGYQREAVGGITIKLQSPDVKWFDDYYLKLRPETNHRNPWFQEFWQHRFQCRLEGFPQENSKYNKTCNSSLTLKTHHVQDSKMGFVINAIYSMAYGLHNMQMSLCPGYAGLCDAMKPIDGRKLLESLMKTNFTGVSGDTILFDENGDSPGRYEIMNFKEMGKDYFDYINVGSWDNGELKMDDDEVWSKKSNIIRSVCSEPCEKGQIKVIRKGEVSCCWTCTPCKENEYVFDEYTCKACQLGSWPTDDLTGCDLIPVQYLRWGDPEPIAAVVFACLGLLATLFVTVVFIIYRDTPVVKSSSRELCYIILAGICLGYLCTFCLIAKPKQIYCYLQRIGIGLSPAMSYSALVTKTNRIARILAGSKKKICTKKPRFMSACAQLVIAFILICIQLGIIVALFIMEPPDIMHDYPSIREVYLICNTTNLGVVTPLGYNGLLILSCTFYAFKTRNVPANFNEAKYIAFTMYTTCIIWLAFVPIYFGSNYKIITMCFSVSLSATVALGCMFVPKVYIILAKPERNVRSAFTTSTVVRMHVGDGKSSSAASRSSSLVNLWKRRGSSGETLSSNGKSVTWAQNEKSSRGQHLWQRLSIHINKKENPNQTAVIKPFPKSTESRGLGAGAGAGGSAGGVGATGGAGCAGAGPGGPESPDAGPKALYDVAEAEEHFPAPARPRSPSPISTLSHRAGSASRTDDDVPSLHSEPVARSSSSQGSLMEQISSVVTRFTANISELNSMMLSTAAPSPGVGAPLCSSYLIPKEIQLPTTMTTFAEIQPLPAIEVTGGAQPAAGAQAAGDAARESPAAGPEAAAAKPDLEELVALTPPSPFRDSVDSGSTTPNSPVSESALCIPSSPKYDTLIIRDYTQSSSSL

This test has as its target human mGluR5A (Homo sapiens, UniProt P41594). In words: mGluR5 FLIPR Assay. The format is cell-based. Conditions: positive modulator activity; HEK293 (ZF) cells with human mGluR5A and rat GLAST; Ca++ response to ~EC10 glutamate.
In general, EC50 refers to the concentration at which the effect is half-maximal. A lower EC50 goes with higher potency in that assay. Compound `O=C1N[C@H](c2cc(C#Cc3ccccc3)ncc2F)[C@@H](c2ccccc2F)O1` [Example 304, (4R,5R)-4-(5-Fluoro-2-(phenylethynyl)pyridin-4-yl)-5-(2-fluorophenyl)oxazolidin-2-one] showed an EC50 of under 100 nM. As to `O=C1N[C@@H](c2cncc(C#Cc3ccccc3)c2)[C@H](c2ncco2)O1` [Example 338, (4S,5R)-5-(oxazol-2-yl)-4-(5-(phenylethynyl)pyridin-3-yl)oxazolidin-2-one], the EC50 is over 1000 nM.

In turn, `O=C1N[C@H](c2cncc(C#Cc3ccccc3)c2)[C@@H](c2ncco2)O1` [Example 339, (4R,5S)-5-(oxazol-2-yl)-4-(5-(phenylethynyl)pyridin-3-yl)oxazolidin-2-one] displayed an EC50 of over 1000 nM. Under `Cn1nccc1[C@@H]1OC(=O)N[C@H]1c1cncc(C#Cc2ccccc2)c1` [Example 341, (4S,5R)-5-(1-methyl-1H-pyrazol-5-yl)-4-(5-(phenylethynyl)pyridin-3-yl)oxazolidin-2-one] stands over 1000 nM; under `Cn1nccc1[C@H]1OC(=O)N[C@@H]1c1cncc(C#Cc2ccccc2)c1` [Example 342, (4R,5S)-5-(1-methyl-1H-pyrazol-5-yl)-4-(5-(phenylethynyl)pyridin-3-yl)oxazolidin-2-one], under 100 nM. Under `N#Cc1ccc([C@H]2OC(=O)N[C@@H]2c2cncc(C#Cc3ccccc3)c2)cc1` [Example 365, 4-((4R,5R)-2-Oxo-4-(5-(phenylethynyl)pyridin-3-yl)oxazolidin-5-yl)benzonitrile] stands under 100 nM; under `O=C1NC(c2cccc(C#Cc3ccccc3)c2)C(c2cccc(O)c2)O1` [Example 380, (4R,5R)-5-(3-Hydroxyphenyl)-4-(3-phenylethynyl)phenyl)oxazolidin-2-one], under 100 nM; under `Cc1ccc(C#Cc2cncc([C@H]3NC(=O)O[C@@H]3c3cc(F)ccc3F)c2)cc1` [Example 381, (4R,5R)-5-(2,5-Difluorophenyl)-4-(5-(p-tolylethynyl)pyridin-3-yl)oxazolidin-2-one], 100 to 1000 nM. For `COc1ccc(C#Cc2cncc([C@H]3NC(=O)O[C@@H]3c3cc(F)ccc3F)c2)cc1` [Example 382, (4R,5R)-5-(2,5-difluorophenyl)-4-(5-((4-methoxyphenyl)ethynyl)pyridin-3-yl)oxazolidin-2-one] the value was 100 to 1000 nM and 537 nM. `O=C1N[C@H](c2cncc(C#Cc3ccc(Cl)c(Cl)c3)c2)[C@@H](c2cc(F)ccc2F)O1` [Example 383, (4R,5R)-4-(5-((3,4-dichlorophenyl)ethynyl)pyridin-3-y1)-5-(2,5-difluorophenyl)oxazolidin-2-one] showed an EC50 of over 1000 nM. For `CC(C)(C)c1ccc(C#Cc2cncc([C@H]3NC(=O)O[C@@H]3c3cc(F)ccc3F)c2)cc1` [Example 384, (4R,5R)-4-(5-((4-tert-butylphenyl)ethynyl)pyridin-3-y1)-5-(2,5-difluorophenyl)oxazolidin-2-one] the value was over 1000 nM; for `O=C1N[C@H](c2cncc(C#Cc3cccc(Cl)c3)c2)[C@@H](c2cc(F)ccc2F)O1` [Example 385, (4R,5R)-4-(5-((3-chlorophenyl)ethynyl)pyridin-3-yl)-5-(2,5-difluorophenyl)oxazolidin-2-one], over 1000 nM. In turn, `O=C1N[C@H](c2cncc(C#Cc3cccc(C(F)(F)F)c3)c2)[C@@H](c2cc(F)ccc2F)O1` [Example 386, (4R,5R)-5-(2,5-difluorophenyl)-4-(5-((3-(trifluoromethyl)phenyl)ethynyl)pyridin-3-yl)oxazolidin-2-one] had an EC50 of over 1000 nM. Under `Cc1cccc(C#Cc2cncc([C@H]3NC(=O)O[C@@H]3c3cc(F)ccc3F)c2)c1` [Example 387, (4R,5R)-5-(2,5-difluorophenyl)-4-(5-(m-tolylethynyl)pyridin-3-yl)oxazolidin-2-one] stands over 1000 nM; under `O=C1N[C@H](c2cncc(C#Cc3ccc(Cl)cc3)c2)[C@@H](c2cc(F)ccc2F)O1` [Example 388, (4R,5R)-4-(5-((4-chlorophenyl)ethynyl)pyridin-3-y1)-5-(2,5-difluorophenyl)oxazolidin-2-one], 100 to 1000 nM.
